Here are results for 30 molecules from PubChem BioAssay (NCI).

Holding throughout (assay): NCI tumour cell line growth inhibition, 48 h
For assay [1], the system named is OVCAR-5 ovarian.
In assay [2] the test system is SNB-75 CNS.
Assay [3] has as its system UO-31 renal.
In assay [4] the test system is NCI-H460 lung.
In assay [5] the test system is HOP-92 NSCLC.
Assay [6] concerns SK-MEL-5 melanoma.
Assay [7] has as its system 786-0 renal.
In assay [8] the test system is DU-145 prostate.
In assay [9] the test system is HS 578T breast.
The subject of assay [10] is T-47D breast.

SMILES strings stand for the structures.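 Dose response: 5 concentrations. Exposure: 48 h. Format: 96-well plates. Endpoint: linear interpolation; highest concentration if not reached. GI50 is the concentration that inhibits growth by half. The concentration for full growth arrest is given as TGI.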

On to `CCCCCCCCC(=O)CCCCCCCCC(=O)O`, for which the TGI in [1] is 55.3 µM; in assay [2], > 100 µM; in assay [3], 84.7 µM; in assay [4] it was 44.6 µM; in assay [5], 35.2 µM; in assay [6] it was 29.1 µM. The molecule further registered a TGI in assay [7] of 64.3 µM.
As to `CC12Oc3ccc4ccccc4c3C1c1c(ccc3ccccc13)O2` (centres undefined), the TGI in assay [1], in [2], in assay [3], in assay [4], in assay [5] and in [6] was > 100 µM throughout. In addition, the TGI in assay [7] is > 100 µM.
As to `CCC1(O)C(=O)OCc2c1cc1n(c2=O)Cc2c-1nc1ccccc1c2OC` (centres undefined), the TGI came out at 27.4 µM in assay [1]; 0.129 µM in [2]; 0.249 µM in assay [3]; 3.57 µM in [5]; 0.205 µM in assay [6]; 0.0249 µM in assay [7].
Take `Cc1ccc(NC(=O)C2C(=O)C(=O)N(c3ccc(C)cc3)C2=O)cc1` (centres undefined): the TGI in assay [1], in [3], in assay [4], in assay [5], in [6] and in assay [7] was > 100 µM each time.
Turning to `CCC[CH2][Sn]([CH2]CCC)([O]C(=O)c1cc(OC)c(OC)c(OC)c1)[O]C(=O)c1cc(OC)c(OC)c(OC)c1`, the GI50 is 2.32 µM in assay [1]; 0.169 µM in [2]; 1.33 µM in assay [3]; 2.96 µM in assay [4]; 1.49 µM in [6]; 1.29 µM in [7]. The TGI was 3.83 µM in [1]; 1.29 µM in [2]; 2.61 µM in assay [3]; 9.21 µM in assay [4]; 2.97 µM in assay [6]; 2.57 µM in [7].
For `[Ce+3].[Cl-].[O-]/N=C(\c1ccccc1)c1ccccn1.[O-]/N=C(\c1ccccc1)c1ccccn1.[O-]/N=C(\c1ccccc1)c1ccccn1`, the GI50 is > 100 µM in assay [1]; 15.1 µM in assay [2]; 28.1 µM in assay [3]; 47.1 µM in assay [4]; 25.1 µM in assay [5]; 28.8 µM in [6]. Also, the GI50 in [7] was 47 µM. Besides, the TGI in assay [1] is > 100 µM; in assay [2], 66 µM; in assay [3] it was 82.9 µM; in [4], > 100 µM; in assay [5], > 100 µM; in assay [6] it was 85.8 µM. The TGI in assay [7] is > 100 µM.
Regarding `Cn1c(O)c(C=N)c(=O)n(C)c1=O`, the TGI in assay [1], in assay [2], in [3], in [4], in assay [5] and in assay [6] was > 100 µM in each case. Further, the TGI in [7] was > 100 µM.
`Nc1ccn(C2OC(CO[P+](=O)OC3C(CO[P+](=O)OC4C(CO[P+](=O)OC5C(CO[P+](=O)OC6C(CO[P+](=O)OC7C(CO[P+](=O)OC8C(CO[P+](=O)OC9C(CO[P+](=O)OC%10C(CO[P+](=O)OC%11C(CO)OC(n%12ccc(N)nc%12=O)C%11(F)F)OC(n%11ccc(N)nc%11=O)C%10(F)F)OC(n%10ccc(N)nc%10=O)C9(F)F)OC(n9ccc(N)nc9=O)C8(F)F)OC(n8ccc(N)nc8=O)C7(F)F)OC(n7ccc(N)nc7=O)C6(F)F)OC(n6ccc(N)nc6=O)C5(F)F)OC(n5ccc(N)nc5=O)C4(F)F)OC(n4ccc(N)nc4=O)C3(F)F)C(O)C2(F)F)c(=O)n1` (centres undefined): the GI50 was 9.59 µM in assay [1], 0.0239 µM in assay [8], > 100 µM in assay [9] and 0.0605 µM in assay [7]. The TGI in assay [1] was > 100 µM; in [8], 0.13 µM; in assay [6], > 100 µM; in assay [10], > 100 µM; in [7], > 100 µM.
`CC1C(=O)CCC1C(Sc1ccccc1)(Sc1ccccc1)Sc1ccccc1` (centres undefined): the TGI in [1] is > 100 µM; in assay [2], 64.6 µM; in assay [3] it was 5.9 µM; in [4] it was > 100 µM; in [5] it was 81.8 µM; in assay [6], 73.5 µM. The TGI in assay [7] was > 100 µM.
Consider `COC(=O)C(=C\Sc1ccccc1)/C=C/C(=O)OC(C)(C)C`, for which the TGI in [1] is 28.8 µM; in assay [2] it was 28.5 µM; in assay [3], 29.5 µM; in assay [4] it was 33.2 µM; in assay [5], 13.3 µM; in assay [6], 28.6 µM. Moreover, the TGI in [7] amounted to 10.9 µM.
On to `Cc1cc(NC(=O)NC(=O)c2ccccc2[N+](=O)[O-])ccc1Oc1ncc(Cl)cn1`, for which the TGI in [1] was > 100 µM; in assay [2] it was 1.59 µM; in assay [3], 75.6 µM; in assay [4] it was 18.8 µM; in assay [8], > 100 µM; in assay [6], 3.32 µM. Also, the TGI was > 100 µM in assay [10] and 26.4 µM in assay [7].
With `COC(=O)C(C(=O)C(=O)Nc1c(Cl)cc([N+](=O)[O-])cc1Cl)c1nc2cc(C)c(C)cc2[nH]c1=O` (centres undefined), the TGI in assay [1], in assay [2], in assay [3], in [4], in assay [5] and in assay [7] was > 100 µM in each case.
Consider `O=C(O)c1ccc([N+](=O)[O-])c(P(=O)(O)O)c1`, for which the TGI in assay [1], in assay [3], in assay [4], in assay [8], in assay [5] and in assay [6] was > 100 µM throughout. Besides, the TGI in assay [10] and in assay [7] was > 100 µM each time.
For `Cc1cc(=O)[nH]c(CNC(=O)c2cccc3ccccc23)n1`, the TGI in assay [2], in assay [3], in [4], in [5], in assay [6] and in assay [7] was > 100 µM in each case.
For `CC(=O)c1cc2c3c(c1)c1cc4c(cc1c(=O)n3CC2)OCO4`, the TGI in assay [1] was > 100 µM; in [2] it was > 100 µM; in [3] it was 38.6 µM; in assay [4], 49.7 µM; in [5], > 100 µM; in assay [6] it was > 100 µM. For the same molecule, in assay [7], the TGI was > 100 µM.
As for `O=S1(=O)COc2ccccc2-c2ncncc21`, the TGI in assay [1], in [2], in assay [3], in assay [4], in assay [5] and in assay [6] was > 100 µM throughout. Moreover, the TGI in [7] was > 100 µM.
In the case of `CCOC(=O)NC(=O)c1cn(CCCCCCCCCCC(=O)N2CCN(CCn3cc(C(=O)NC(=O)OCC)c(=O)[nH]c3=O)CC2)c(=O)[nH]c1=O`, the TGI in [2], in assay [4], in [5], in [6] and in [7] was > 100 µM throughout.
Turning to `CCOC(=O)/C(=C/c1cc(OC)ccc1OC)CC(=O)O`, the TGI was > 100 µM in [2]; > 100 µM in assay [3]; > 100 µM in [4]; > 100 µM in [5]; > 100 µM in assay [6]; > 31.6 µM in assay [7].
Turning to `Cc1ccccc1NC(=O)N/C(N)=N/c1nc2ccccc2s1`, the GI50 is 0.488 µM in assay [1]; < 0.0165 µM in assay [2]; 1.3 µM in [3]; 0.113 µM in assay [4]; 0.0833 µM in [8]; 0.065 µM in [6]. Besides, the figures for the GI50 in assay [9] and in assay [7] were 0.0494 µM and 0.0646 µM, respectively. For the same molecule, the TGI is > 100 µM in assay [1]; 0.446 µM in [2]; > 100 µM in [3]; > 100 µM in assay [4]; > 100 µM in [8]; > 100 µM in [5]. Further, the TGI is 2.07 µM in [6], > 100 µM in assay [9] and > 100 µM in assay [7].
Consider `OCC1OC(n2ccc3cnccc32)CC1O` (centres undefined), for which the TGI in assay [1], in [2], in assay [3], in assay [4], in assay [5] and in assay [6] was > 100 µM throughout. In addition, in assay [7], the TGI is > 100 µM.
Consider `NCC(=O)Nc1ccc(-n2nc(C(F)(F)F)cc2-c2ccc3c(ccc4ccccc43)c2)cc1`, for which the GI50 was 1.56 µM in [1]; 1.26 µM in [2]; 1.32 µM in assay [3]; 0.307 µM in assay [4]; 1.32 µM in assay [8]; 1.27 µM in assay [5]. Further, the GI50 in assay [6] is 1.25 µM; in assay [10] it was 1.62 µM; in assay [7] it was 1.47 µM. For the same molecule, the TGI in assay [1] was found to be 2.95 µM; in assay [2], 2.79 µM; in assay [3] it was 2.61 µM; in assay [4], 1.74 µM; in [8], 2.62 µM; in assay [5], 2.65 µM. The TGI in assay [6] was 2.56 µM; in assay [10] it was 3 µM; in assay [7], 3.06 µM.
Regarding `COc1ccc(C2Cc3cc(OC)c(OC)c(OC)c3C2=O)cc1` (centres undefined), the TGI in [1], in [2], in assay [3], in assay [4], in [6] and in [7] was > 100 µM throughout.
For the molecule `CCCCN(CCCC)c1cc(C(=O)CCCCCN)c2ccccc2n1`, the GI50 is 1.85 µM in assay [1]; 1.71 µM in assay [2]; 1.85 µM in assay [3]; 1.89 µM in [8]; 2.51 µM in assay [5]; 1.58 µM in [6]. The GI50 in assay [9] is 2.13 µM; in assay [7], 1.83 µM. Further, the TGI in [1] stood at 3.65 µM; in assay [2], 3.21 µM; in assay [3], 3.68 µM; in assay [8], 3.41 µM; in assay [5], 6.32 µM; in [6], 2.92 µM. For the same molecule, the TGI in assay [9] was 6.05 µM; in [7] it was 3.27 µM.
Regarding `Cc1cc(=O)cc2sc3cc(Cl)ccc3nc1-2`, the TGI in assay [1] was found to be 43.7 µM; in [2], 15.7 µM; in assay [3] it was 63.1 µM; in [4], 35.4 µM; in [5] it was 57.7 µM; in assay [6], 12.6 µM. Moreover, the TGI in [7] was 29 µM.
Regarding `CC1=C(C)C(=O)c2c(cc3c4ccccc4ccn23)C1=O`, the TGI in assay [2], in assay [3], in [4], in assay [6] and in assay [7] was > 100 µM in each case.
For `C=CCOC1=C2CC[C@H](O)[C@@]2(C)CCC1=O`, the TGI in assay [1], in assay [2], in assay [3], in assay [4], in [5] and in assay [6] was > 100 µM each time. For the same molecule, in assay [7], the TGI is > 100 µM.
For `COC1OC(COCc2ccc(Cl)cc2)C(OCc2ccc(Cl)cc2)C1O` (centres undefined), the TGI is 30 µM in [1]; 32.8 µM in assay [2]; 29.4 µM in [3]; 32 µM in assay [4]; 25.1 µM in assay [5]; 28.6 µM in [6]. Also, the TGI in assay [7] is 30.8 µM.
Regarding `Nc1ccccc1S(=O)c1ccccc1` (centres undefined), the TGI in assay [1], in [2], in assay [3], in [4], in assay [5] and in [6] was > 100 µM each time. In [7], the TGI is > 100 µM.
For `O=C(CC(=O)C(=O)CC(=O)OCc1ccccc1)OCc1ccccc1`, the TGI was > 100 µM in assay [1]; > 100 µM in assay [2]; 75.7 µM in assay [3]; > 100 µM in assay [5]; > 100 µM in [6]; > 100 µM in assay [7].
As for `CC(C)CC(=O)N1CCN(C(=O)CC(C)C)c2ccccc21`, the TGI in [1], in [2], in assay [3], in [4], in [5] and in assay [7] was > 100 µM throughout.
